Values belong to the compound of their own block, whether it stands above or below them.
Key:
[1] = target: Hydroxycarboxylic acid receptor 2 (Homo sapiens, UniProt Q8TDS4)
[2] = target: T1, Substance-K receptor (Homo sapiens, UniProt P21452)
T1 sequence (P21452 whole entry): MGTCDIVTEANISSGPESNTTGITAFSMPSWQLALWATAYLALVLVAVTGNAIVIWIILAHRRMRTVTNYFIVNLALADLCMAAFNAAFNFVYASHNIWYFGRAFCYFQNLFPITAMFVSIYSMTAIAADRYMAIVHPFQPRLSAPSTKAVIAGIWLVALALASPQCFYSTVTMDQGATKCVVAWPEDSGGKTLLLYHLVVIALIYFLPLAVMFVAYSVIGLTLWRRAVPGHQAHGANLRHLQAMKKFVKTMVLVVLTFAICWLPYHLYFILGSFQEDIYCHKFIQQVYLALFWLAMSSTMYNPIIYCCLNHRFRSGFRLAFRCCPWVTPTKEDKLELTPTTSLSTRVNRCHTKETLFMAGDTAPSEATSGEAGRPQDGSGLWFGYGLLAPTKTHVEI

[3] = target: T2, Muscarinic acetylcholine receptor M4 (Homo sapiens, UniProt P08173)
T2 sequence (P08173 whole entry): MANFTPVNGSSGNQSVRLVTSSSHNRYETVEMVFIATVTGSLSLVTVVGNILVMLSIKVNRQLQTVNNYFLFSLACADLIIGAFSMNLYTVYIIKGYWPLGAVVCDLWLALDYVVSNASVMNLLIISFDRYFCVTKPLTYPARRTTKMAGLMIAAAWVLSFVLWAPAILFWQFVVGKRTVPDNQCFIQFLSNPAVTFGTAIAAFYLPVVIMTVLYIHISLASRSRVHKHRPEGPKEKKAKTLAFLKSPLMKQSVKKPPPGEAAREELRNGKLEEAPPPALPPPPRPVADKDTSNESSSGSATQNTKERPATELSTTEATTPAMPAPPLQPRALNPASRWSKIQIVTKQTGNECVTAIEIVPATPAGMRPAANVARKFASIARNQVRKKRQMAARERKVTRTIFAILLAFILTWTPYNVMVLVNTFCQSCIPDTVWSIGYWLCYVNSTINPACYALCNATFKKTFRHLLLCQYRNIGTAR

[4] = target: T3, Estrogen receptor (Homo sapiens, UniProt P03372); type: functional
T3 sequence (P03372 whole entry): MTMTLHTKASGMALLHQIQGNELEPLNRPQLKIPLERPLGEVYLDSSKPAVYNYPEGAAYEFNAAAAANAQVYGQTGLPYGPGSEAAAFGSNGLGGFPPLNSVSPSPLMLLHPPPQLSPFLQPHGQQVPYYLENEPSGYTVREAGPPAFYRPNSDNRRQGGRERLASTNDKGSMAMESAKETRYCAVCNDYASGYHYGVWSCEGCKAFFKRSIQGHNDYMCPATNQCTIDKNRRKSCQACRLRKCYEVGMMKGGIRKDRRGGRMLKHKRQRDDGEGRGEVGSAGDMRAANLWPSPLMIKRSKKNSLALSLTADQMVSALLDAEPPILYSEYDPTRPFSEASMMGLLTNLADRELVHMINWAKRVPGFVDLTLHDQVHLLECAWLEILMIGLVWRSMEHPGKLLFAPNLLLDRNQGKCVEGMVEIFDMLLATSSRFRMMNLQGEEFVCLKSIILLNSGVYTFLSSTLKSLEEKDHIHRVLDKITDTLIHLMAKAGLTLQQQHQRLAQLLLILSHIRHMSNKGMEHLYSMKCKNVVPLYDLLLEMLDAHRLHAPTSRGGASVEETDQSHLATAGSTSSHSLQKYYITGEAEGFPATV

[5] = target: T3, Estrogen receptor; type: functional; remark: listed apart in the source
[6] = target: T4, Peroxisome proliferator-activated receptor alpha (Homo sapiens, UniProt Q07869); type: functional
T4 sequence (Q07869 whole entry): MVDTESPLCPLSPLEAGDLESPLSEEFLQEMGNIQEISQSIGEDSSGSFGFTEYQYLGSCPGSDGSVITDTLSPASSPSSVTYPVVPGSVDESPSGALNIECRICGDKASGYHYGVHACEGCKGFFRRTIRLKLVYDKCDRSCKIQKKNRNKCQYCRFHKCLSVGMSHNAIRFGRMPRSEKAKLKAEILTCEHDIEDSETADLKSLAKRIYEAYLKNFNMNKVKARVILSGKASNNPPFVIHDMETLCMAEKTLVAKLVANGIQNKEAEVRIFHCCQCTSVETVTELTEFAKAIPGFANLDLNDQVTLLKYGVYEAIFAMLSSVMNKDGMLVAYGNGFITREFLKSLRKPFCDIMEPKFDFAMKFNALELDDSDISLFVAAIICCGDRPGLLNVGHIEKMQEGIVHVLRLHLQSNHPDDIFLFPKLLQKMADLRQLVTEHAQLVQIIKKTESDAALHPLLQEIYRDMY

[7] = target: T4, Peroxisome proliferator-activated receptor alpha; type: functional; remark: listed apart in the source
[8] = target: T5, Muscarinic acetylcholine receptor M2 (Homo sapiens, UniProt P08172)
T5 sequence (P08172 whole entry): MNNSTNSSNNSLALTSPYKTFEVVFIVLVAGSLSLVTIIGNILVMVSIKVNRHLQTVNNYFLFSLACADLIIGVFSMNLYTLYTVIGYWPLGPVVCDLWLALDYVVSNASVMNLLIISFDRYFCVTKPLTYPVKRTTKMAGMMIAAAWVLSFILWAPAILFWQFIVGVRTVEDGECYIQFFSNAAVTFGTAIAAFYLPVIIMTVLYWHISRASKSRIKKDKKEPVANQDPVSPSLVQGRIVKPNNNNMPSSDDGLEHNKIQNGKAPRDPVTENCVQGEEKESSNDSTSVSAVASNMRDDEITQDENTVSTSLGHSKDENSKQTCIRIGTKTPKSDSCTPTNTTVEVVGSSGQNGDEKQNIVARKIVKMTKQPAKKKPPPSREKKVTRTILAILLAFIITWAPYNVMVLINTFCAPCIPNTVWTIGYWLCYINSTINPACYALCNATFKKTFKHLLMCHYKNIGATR
Further: assay procedure not described here.

Chain of Hydroxycarboxylic acid receptor 2 (Q8TDS4 whole entry): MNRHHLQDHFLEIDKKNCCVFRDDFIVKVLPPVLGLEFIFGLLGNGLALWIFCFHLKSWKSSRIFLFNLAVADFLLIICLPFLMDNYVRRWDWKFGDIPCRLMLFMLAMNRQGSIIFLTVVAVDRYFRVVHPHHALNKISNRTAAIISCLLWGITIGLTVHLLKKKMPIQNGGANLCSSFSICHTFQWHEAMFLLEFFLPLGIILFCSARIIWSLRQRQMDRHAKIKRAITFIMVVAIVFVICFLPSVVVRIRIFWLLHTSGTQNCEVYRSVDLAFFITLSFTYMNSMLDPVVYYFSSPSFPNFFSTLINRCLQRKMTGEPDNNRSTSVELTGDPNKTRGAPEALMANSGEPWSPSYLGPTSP

Compound: Cc1cnc(C(=O)O)c[n+]1[O-] [ACIPIMOX]
AC50 [1]: 3.9 µM

Compound: N=C(N)NC(=O)c1nc(Cl)c(N)nc1N [AMILORIDE]
AC50 [2]: > 10 µM | AC50 [3]: > 10 µM

Compound: COc1cccc2c1C(=O)c1c(O)c3c(c(O)c1C2=O)C[C@@](O)(C(=O)CO)C[C@@H]3O[C@H]1C[C@H](N)[C@H](O)[C@H](C)O1 [DOXORUBICIN]
AC50 [4]: > 3 µM | AC50 [5]: > 10 µM

AC50 [6]: > 30 µM | AC50 [7]: > 30 µM
Compound: CC(C)(Oc1ccc(Cl)cc1)C(=O)OCCOC(=O)c1cccnc1 [ETOFIBRATE]

Compound: CN1CCCC(CC2c3ccccc3Sc3ccccc32)C1 (stereo not drawn) [METHIXENE]
AC50 [8]: 0.0053 µM
